Literature values in patent US7446116B2, “Montelukast amantadine salt” (Synthon BV, priority 2006, dated 2008).
Where a name gives a salt, the structure may show the parent alone.

Assays:
human patient = conditions: doses of at least 200 mg per day
rats = conditions: oral administration

Compound: NC12CC3CC(CC(C3)C1)C2 [amantadine hydrochloride]
- safety for a human patient (human patient): safe and nontoxic

Compound: CC(C)(C)N [tert.butyl amine]
- toxicity, expressed as LD50 value (rats): 44 mg/kg
